Experiment [1] deals with Flag‐DOPr. In words: Agonist‐induced internalization of Flag‐DOPrs in primary cortical neuron cultures. It counts as cell-based, Murine. The conditions noted are these: 10 µmol/L, 60 min; rat primary cortical neurons transfected with Flag‐DOPr; three independent experiments. On the procedure:
(§1) Primary neuronal cultures were prepared from rat post‐natal prefrontal cortex (P0‐P2) as previously described. ^19 Briefly, three cultures were independently prepared from 8 to 12 pups each. Pups were cryo‐anaesthetized, and brains were removed and transferred into ice‐cold dissociation solution (NaS0_4 90 mmol/L; K2SO4 30 mmol/L; MgCl2 5.8 mmol/L; CaCl20.25 mmol/L; HEPES 10 mmol/L; glucose 20 mmol/L; pH 7.4). Following dissection, the frontal cortex was digested in papain solution (20 U/mL; 40 minutes at 37°C), and the product passed through Pasteur pipettes of progressively decreasing diameter for mechanical dissociation. The suspension obtained was centrifuged, and cells were then resuspended and diluted to a density of 2.5 million/mL, before plating onto glass coverslips pre‐coated with collagen/poly l‐lysine (each at 0.1 mg/mL). Culture proceeded in supplemented Neurocell medium (B27 4%; 100 U/mL penicillin‐streptomycin; GlutaMAX 2%; FBS 10%) for 24 hours. Coverslips were then transferred to a six‐well plate containing 2 mL of Neurocell medium/well and transfected with Flag‐DOPr (8 µg/well), using a calcium phosphate transfection protocol previously. ^19 Murine DORs tagged with the Flag epitope at the N terminus were a generous gift from Dr M. von Zastrow (University of California at San Francisco, San Francisco, CA).
Immunolabelling of surface receptors for quantification of trafficking was performed as previously described. ^19 Briefly, primary cultures expressing Flag‐DOPrs were incubated at 37°C with Neurocell medium containing Ca^2+‐dependent mouse anti‐Flag M1 antibody (1:100; Sigma). […]
(§2) Cytoplasmic and surface labelling densities were quantified with ImageJ using a previously described method, ^27 with small modifications. ^16 In particular, total cytoplasmic labelling density was obtained by measuring fluorescence intensity within the region confined between the external and nuclear perimeters, and dividing this value by the corresponding area. […]

Experiment [2] relates to Flag‐DOPr. The experiment is described as follows: DOPr recycling after recovery from agonist‐induced internalization in primary cortical neuron cultures. It counts as cell-based, Murine. The conditions noted are these: for Surface labelling after recovery / Intracellular immunoreactivity after 60 min recovery vs immediately after treatment: 10 µmol/L; for Surface labelling after recovery / Effect of ECE2 inhibitor 6634449 on redistribution of internalized receptors during recovery: 60 min; for Surface labelling after recovery: then 60 min recovery, non‐permeabilized neurons; for Intracellular immunoreactivity after 60 min recovery vs immediately after treatment: then 60 min recovery in absence of ligand, permeabilized neurons; for Effect of ECE2 inhibitor 6634449 on redistribution of internalized receptors during recovery: agonist 10 µmol/L, 6634449 20 μmol/L during 60 min recovery. On the procedure: as §1
Immunolabelling of surface receptors for quantification of trafficking was performed as previously described. ^19 Briefly, primary cultures expressing Flag‐DOPrs were incubated at 37°C with Neurocell medium containing Ca^2+‐dependent mouse anti‐Flag M1 antibody (1:100; Sigma). After 30 minutes incubation with the antibody, vehicle (0.05% DMSO in Neurocell) or agonist (TIPP, deltorphin II; SNC‐80; SB235863; 10 μmol/L) was added to the medium for 60 minutes. At the end of this period, cultured neurons were washed at 37°C once in calcium‐free PBS and then in PBS in order to remove treatment agonist as well as antibody bound to receptors that may have remained at the membrane after agonist exposure. For visualization of internalized receptors, cultures were immediately fixed with 4% PFA, permeabilized with PBS/0.1% Triton (20 minutes at room temperature (RT)), blocked with PBS/BSA 1% (10 minutes at RT) and incubated with secondary antimouse Alexa 488‐conjugated donkey antibody (1:1000; Invitrogen, A21202). Alternatively, cultured neurons were allowed to recover for 60 minutes in the absence of ligand before a second round of calcium‐free PBS wash was completed before fixation, permeabilization and incubation with secondary antibody. The latter procedure allowed to remove antibody bound to Flag‐DOPrs that translocated to the surface during recovery ensuring the exclusive labelling of receptors that were retained intracellularly. ^26 Another set of neurons was similarly treated with agonist or vehicle and then allowed to recover for 60 minutes following which they were fixed and incubated with secondary antibody without permeabilization, so as to exclusively reveal Flag‐DOPrs that reappeared at the surface during recovery from internalization; measures of surface labelling were normalized to intracellular labelling produced during internalization. Recycling was thus established by taking two independent measures: (a) cytoplasmic labelling density lost during recovery from treatment and (b) gain in surface labelling density when neurons were allowed to recover from agonist‐induced internalization. In experiments in which 6634449 was introduced in the medium during recovery, the concentration used was 20 μmol/L.
as §2

A further experiment deals with DOPr. Details: method as in PMID 24174495. The conditions noted are these: cited from earlier work.

Turning to `C=CCN1C[C@H](C)N([C@H](c2ccc(C(=O)N(CC)CC)cc2)c2cccc(OC)c2)C[C@H]1C` [SNC‐80, (+)‐4‐[(αR)‐α‐((2S,5R)‐4‐allyl‐2,5‐dimethyl‐1‐piperazinyl)‐3‐methoxybenzyl]‐N,N‐diethylbenzamide], the “Sequestration (intracellular labelling density)” value (“Sequestration” for short) in the experiment on Flag‐DOPr [1] is on record as “significantly higher”. For the same molecule, in the experiment on Flag‐DOPr [2], the “Surface labelling after recovery” value is “less”, the “Intracellular immunoreactivity after 60 min recovery vs immediately after treatment” value is “not different from the one observed immediately after the end of treatment” and the “Effect of ECE2 inhibitor 6634449 on redistribution of internalized receptors during recovery” value is listed as “without effect”. Further, the “Decay of cAMP inhibition in HEK cells” value in the experiment with DOPr is on record as “fast decay”.

Consider deltorphin II, for which the “Sequestration” value in the experiment with Flag‐DOPr [1] was “significantly higher”. Besides, in the experiment on Flag‐DOPr [2], the “Intracellular immunoreactivity after 60 min recovery vs immediately after treatment” value is on record as “significantly reduced” and the “Effect of ECE2 inhibitor 6634449 on redistribution of internalized receptors during recovery” value was “remain trapped in the cytosol”. The “Decay of cAMP inhibition in HEK cells” value in the experiment with DOPr was “fast decay”.

As for `CCC(C)COC(=O)c1[nH]c2c(c1C)CC1C3Cc4ccc(OC)c5c4C1(CCN3C)C2O5.Cl` (stereo not drawn) [SB235863, [8R‐(4bS*,8aα,8aβ,12bβ)]7,10‐dimethyl‐1‐methoxy‐11‐(2‐ethylpropyl)oxycarbonyl 5,6,7,8,12,12b‐hexahydro‐(9H)‐4,8‐methanobenzofuro[3,2‐e]pyrrolo[2,3‐g]isoquinoline hydrochloride], the “Sequestration” value in the experiment with Flag‐DOPr [1] is given as “low‐internalizing”. Besides, in the experiment on Flag‐DOPr [2], the “Surface labelling after recovery” value is reported as “less”, the “Intracellular immunoreactivity after 60 min recovery vs immediately after treatment” value is given as “not different from the one observed immediately after the end of treatment” and the “Effect of ECE2 inhibitor 6634449 on redistribution of internalized receptors during recovery” value is listed as “without effect”. Besides, the “Decay of cAMP inhibition in HEK cells” value with DOPr was “slow decay”.

The values are drawn from publication PMC7214178, “Ligand‐specific recycling profiles determine distinct potential for chronic analgesic tolerance of delta‐opioid receptor (DOPr) agonists” (Journal of Cellular and Molecular Medicine, 2020).
